Reference: patent US12569479B2 (priority 2016, dated 2026)
pIC50: −log10 of the molar value. Like-named read-outs stand apart in the source and are kept apart here.

Columns and labels:
[1] = test system: patients with agitation associated with Alzheimer's disease; conditions: both, human, in vivo, 5 weeks
Protocol: (§1) A Phase 2/3 randomized, double-blind, controlled, multicenter, U.S. clinical trial was conducted to evaluate the efficacy and safety of DM/BU in patients with agitation associated with Alzheimer's disease. […] Subsequently, patients were randomized in a 1:1 ratio to receive DM/BU or placebo. […] The minimum score on the CMAI is 29, corresponding to the total absence of symptoms, with higher scores corresponding to greater agitation. The primary endpoint of the study was the change from baseline in the CMAI total score at Week 5. P-values were calculated based on least square mean estimates.

[2] = test system: patients with agitation associated with Alzheimer's disease; test: Phase 2/3 randomized, double-blind, controlled trial of DM/BU in agitation associated with Alzheimer's disease
Protocol: as §1

[3] = test system: daily smokers using 10 or more cigarettes per day (nicotine addiction); test: Phase 2 randomized, double-blind, active-controlled study of DM/BU for smoking cessation treatment; type: in vivo, human
Description: Enrolled subjects were daily smokers using 10 or more cigarettes per day.
The primary outcome measure was the change in smoking intensity, measured using the number of cigarettes smoked per day, assessed via daily smoking diaries.

[4] = test system: adult patients with moderate to severe major depressive disorder (MDD); test: Phase 2 randomized, double-blind, active-controlled trial of DM/BU in major depressive disorder; type: in vivo, human; conditions: twice daily for 6 weeks; DM/BU 45 mg/105 mg or bupropion 105 mg
Protocol: The changes from baseline in the Montgomery-Asberg Depression Rating Scale (MADRS) total score over the 6-week treatment period were calculated at each time point and averaged.

[5] = test system: metabolism of dextromethorphan to dextrorphan in human liver microsomes; test: Inhibition of the metabolism of dextromethorphan in human liver microsomes; conditions: human, human liver microsomes, pH 7.4, probe dextromethorphan (5 μM)
Protocol: (§2) The ability of various antidepressant compounds to inhibit the metabolism of dextromethorphan was examined using human liver microsomes.
(§3) After optimal incubation at 37° C., the reactions were terminated by addition of methanol containing internal standard for analytical quantification. The quenched samples were incubated at 4° C. for 10 minutes and centrifuged at 4° C. for 10 minutes. The supernatant was removed, and the metabolite of dextromethorphan (dextrorphan) was analyzed by LC-MS/MS.

[6] = human, in vivo
[7] = test system: dextromethorphan metabolism (dextromethorphan/dextrorphan metabolic ratio); conditions: human, in vivo, 3 h
Protocol: (§4) Plasma concentrations of dextromethorphan and dextrorphan 3 hours after dosing were used, with a dextromethorphan/dextrorphan ratio of 0.3 or greater indicating a poor metabolizer phenotype.

[8] = test system: patients with treatment resistant depression (TRD); test: Phase 3 randomized, double-blind, active controlled trial of DM/BU in treatment resistant depression
Description: Inclusion criteria for the open-label period included males or females 18-65 years of age, a history of inadequate response to 1 or 2 prior antidepressant treatments, established by the Antidepressant Treatment Response Questionaire (ATRQ), and a Hamilton Depression Rating Scale (HAMD-17) total score of ≥18. Inclusion criteria for the double-blind period included inadequate response to 2 or 3 prior antidepressant treatments, including open-label period failure. Exclusion criteria included a history of electroconvulsive therapy, vagus nerve stimulation, transcranial magnetic stimulation, or any experimental central nervous system treatment during the current episode or in the past 6 months, schizophrenia, bipolar disorder, obsessive compulsive disorder, psychiatric symptoms secondary to any other general medical condition.
The change in depressive symptoms over time was measured using the Montgomery-Asberg Depression Rating Scale (MADRS) and the Quick Inventory of Depressive Symptomatology-Self-Rated (QIDS-SR-16). The primary endpoint was the change from baseline in the MADRS after 6 weeks of treatment. The key secondary endpoints were the change from baseline in the MADRS after 1 week of treatment, after 2 weeks of treatment, the average change over entire 6-week double-blind treatment period, and the Sheehan Disability Scale (SDS). Other pre-specified secondary efficacy variables included the Cognitive subscale of the Massachusetts General Hospital Cognitive and Physical Functioning Questionnaire (CPFQ), and the Hamilton Anxiety Scale (HAM-A).

[9] = test system: metabolism of dextromethorphan in human liver microsomes; test: Inhibition of the metabolism of dextromethorphan in human liver microsomes; conditions: read-out: Mean IC50; human liver microsomes 0.5 mg/mL, dextromethorphan 5 μM, 37° C.; dextrorphan formation
Protocol: as §2, §3

[10] = test system: metabolism of dextromethorphan in human liver microsomes
Protocol: as §2, §3

[11] = test system: dextromethorphan metabolism (dextromethorphan/dextrorphan metabolic ratio); test: Phenotypic determination of dextromethorphan metabolizer status (dextromethorphan/dextrorphan metabolic ratio); conditions: Day 8; 3 hours after dosing
Protocol: as §4

[12] = Pharmacokinetic study of dextromethorphan (DM) alone or DM in combination with bupropion, plasma concentrations by LC-MS/MS; conditions: for Cmax: Dextromethorphan Cmax; for average plasma concentration: Day 8, after bupropion administration
[13] = test system: metabolism of dextromethorphan to dextrorphan in human liver microsomes; test: in vitro; conditions: pH 7.4
Protocol: as §2, §3

[14] = DM/BU 45 mg/105 mg or bupropion 150 mg twice daily
[15] = Open-label Period, bupropion 150 mg twice daily

CC(NC(C)(C)C)C(=O)c1cccc(Cl)c1.Cl (racemic) [Bupropion]
Diarrhea, number of subjects [1]: 3 subjects
Discontinuation due to AEs, number of subjects [1]: 1 subjects
Dizziness, number of subjects [1]: 5 subjects
Falls, % of subjects [1]: (14.3%)
Falls, number of subjects [1]: 7 subjects
Fatigue, % of subjects [1]: (10.2%)
Fatigue, number of subjects [1]: 5 subjects
Headache, % of subjects [1]: (6.1%)
Headache, number of subjects [1]: 3 subjects
Insomnia, % of subjects [1]: (6.1%)
Insomnia, number of subjects [1]: 3 subjects
Serious AEs, number of subjects [1]: 4 subjects
Somnolence, number of subjects [1]: 2 subjects
Subjects with any TEAE, % of subjects [1]: (61.2%)
Subjects with any TEAE, number of subjects [1]: 30 subjects
Deaths, % of subjects ([2]; Safety Population): (2.0%
Deaths, number of subjects ([2]; Safety Population): 1 subjects
Deaths, number of subjects ([2]; Safety Population, listed as bupropion): one
mean reduction from baseline in the CMAI total score ([2]; Week 5 (primary endpoint)): 10.0 points
proportion of smokers with more than 50% reduction in expired carbon monoxide levels ([3]; 3-week period): 30.4%
average reduction in cigarettes smoked per day ([3]; over the 3-week period, twice daily): 6.79 cigarettes per day
Change in MADRS Total Score at week 6 [4]: −12.1
Change in MADRS Total Score over 6-week period (averaged) [4]: −8.8
pIC50 [5]: 5.04
reduction in mean dextrorphan AUC0-12 [6]: ~55%
reduction in mean dextrorphan Cmax [6]: ~78%
subjects converted to poor metabolizer status [7]: 100%
mean reduction in MADRS averaged over the entire 6-week treatment period [8, 14]: 6.7
mean reduction in QIDS-SR-16 averaged over the entire 6-week treatment period [8, 14]: 2.3
Anxiety, number of subjects ([8]; Double-blind Period): 0 subjects
Any TEAE, % of subjects ([8]; Double-blind Period): (39.1%)
Any TEAE, number of subjects ([8]; Double-blind Period): 61 subjects
Constipation, % of subjects ([8]; Double-blind Period): (1.9%)
Constipation, number of subjects ([8]; Double-blind Period): 3 subjects
Dizziness, number of subjects ([8]; Double-blind Period): 0 subjects
Dry mouth, % of subjects ([8]; Double-blind Period): (1.9%)
Dry mouth, number of subjects ([8]; Double-blind Period): 3 subjects
Headache, % of subjects ([8]; Double-blind Period): (4.5%)
Headache, number of subjects ([8]; Double-blind Period): 7 subjects
Insomnia, % of subjects ([8]; Double-blind Period): (3.2%)
Insomnia, number of subjects ([8]; Double-blind Period): 5 subjects
Irritability, % of subjects ([8]; Double-blind Period): (1.3%)
Irritability, number of subjects ([8]; Double-blind Period): 2 subjects
Nausea, % of subjects ([8]; Double-blind Period): (1.9%)
Nausea, number of subjects ([8]; Double-blind Period): 3 subjects
rate of discontinuation due to adverse events ([8]; Double-blind Period): 1.9%
Anxiety, % of subjects ([8]; Open-label Period): (3.5%)
Anxiety, number of subjects ([8]; Open-label Period): 11 subjects
Constipation, % of subjects ([8]; Open-label Period): (4.2%)
Constipation, number of subjects ([8]; Open-label Period): 13 subjects
Dizziness, % of subjects ([8]; Open-label Period): (2.9%)
Dizziness, number of subjects ([8]; Open-label Period): 9 subjects
Dry mouth, % of subjects ([8]; Open-label Period): (4.2%)
Dry mouth, number of subjects ([8]; Open-label Period): 13 subjects
Headache, % of subjects ([8]; Open-label Period): (4.5%)
Headache, number of subjects ([8]; Open-label Period): 14 subjects
Insomnia, % of subjects ([8]; Open-label Period): (6.1%)
Insomnia, number of subjects ([8]; Open-label Period): 19 subjects
Irritability, % of subjects ([8]; Open-label Period): (3.2%)
Irritability, number of subjects ([8]; Open-label Period): 10 subjects
Nausea, % of subjects ([8]; Open-label Period): (7.1%)
Nausea, number of subjects ([8]; Open-label Period): 22 subjects
Any TEAE, % of subjects [8, 15]: (43.5)
Any TEAE, number of subjects [8, 15]: 135 subjects
mean MADRS reduction ([8]; Week 1): 3.6
mean MADRS reduction ([8]; Week 2): 6.1
rate of remission from depression (QIDS-SR-16 ≤5) ([8]; Week 6): 8.2%
mean MADRS reduction ([8]; Week 6 (primary endpoint)): 9.4

C[C@@H]1NC(C)(C)CO[C@@]1(O)c1cccc(Cl)c1 [(25,3S)-Hydroxybupropion]
pIC50 [9]: 4.90

C[C@H]1NC(C)(C)CO[C@]1(O)c1cccc(Cl)c1 [(R,R)-Hydroxybupropion]
pIC50 [9]: 5.09

CNCC[C@H](Oc1cccc2ccccc12)c1cccs1 [(S)-Duloxetine]
pIC50 [10]: 5.39

CN(C)CCCC1(c2ccc(F)cc2)OCc2cc(C#N)ccc21 (centres unmarked) [Citalopram]
pIC50 [5]: 4.85

CN(C)CC(c1ccc(O)cc1)C1(O)CCCCC1 (centres unmarked) [Desvenlafaxine]
pIC50 [5]: 4.01

COc1ccc2c(c1)[C@]13CCCC[C@@H]1[C@H](C2)N(C)CC3 [Dextromethorphan]
mean plasma dextromethorphan/dextrorphan metabolic ratio [11]: remained unchanged
Mean Trough Dextromethorphan Plasma Concentrations ([12]; Day 1): 0.7 ng/mL
Mean Trough Dextromethorphan Plasma Concentrations ([12]; Day 5): 1.2 ng/mL
Mean Trough Dextromethorphan Plasma Concentrations ([12]; Day 6): 1.3 ng/mL
Mean Trough Dextromethorphan Plasma Concentrations ([12]; Day 7): 1.2 ng/mL
Dextromethorphan Cavg ([12]; Day 8): 2.3 ng/mL
Dextromethorphan Cmin ([12]; Day 8): 1.1 ng/mL
Mean Trough Dextromethorphan Plasma Concentrations ([12]; Day 8): 1.1 ng/mL
mean elimination half-life (T1/2 el) of dextromethorphan ([12]; Day 8): 6.6 h
AUC(0-inf) ([12]; human, in vivo, 60 mg): 41.2 ng·h/mL
Tmax ([12]; human, in vivo, 60 mg): 2.3 h
concentration at 0 h ([12]; human, in vivo, 60 mg): 1.2 ng/mL
concentration at 1 h ([12]; human, in vivo, 60 mg): 2.4 ng/mL
concentration at 2 h ([12]; human, in vivo, 60 mg): 3.6 ng/mL
concentration at 3 h ([12]; human, in vivo, 60 mg): 3.6 ng/mL
concentration at 4 h ([12]; human, in vivo, 60 mg): 3.3 ng/mL
concentration at 6 h ([12]; human, in vivo, 60 mg): 2.5 ng/mL
concentration at 8 h ([12]; human, in vivo, 60 mg): 1.9 ng/mL
concentration at 12 h ([12]; human, in vivo, 60 mg): 1.1 ng/mL
concentration at 24 h ([12]; human, in vivo, 60 mg): 0.4 ng/mL
concentration at 36 h ([12]; human, in vivo, 60 mg): 0.1 ng/mL
AUC(0-t) ([12]; human, in vivo, 60 mg, Dextromethorphan AUC0-12, Day 1): 20.1 ng·h/mL
AUC(0-t) ([12]; human, in vivo, 60 mg, Dextromethorphan AUC0-12, Day 8): 28.1 ng·h/mL
AUC(0-t) ([12]; human, in vivo, 60 mg, Dextromethorphan AUC0-24, Day 8): 37.1 ng·h/mL
Cmax ([12]; human, in vivo, 60 mg, Day 1): 3 ng/mL
Cmax ([12]; human, in vivo, 60 mg, Day 8): 3.8 ng/mL

CC(NC(C)(C)C)C(O)c1cccc(Cl)c1 (centres unmarked) [Erythrohydroxybupropion]
average plasma concentration [12]: ≥ 20 ng/mL
pIC50 [9]: 5.85

CN(C)CCC[C@@]1(c2ccc(F)cc2)OCc2cc(C#N)ccc21 [Escitalopram]
pIC50 [5]: 4.77

COCCCC/C(=N\OCCN)c1ccc(C(F)(F)F)cc1 [Fluvoxamine]
pIC50 [5]: 5.19

C[C@H](NC(C)(C)C)[C@@H](O)c1cccc(Cl)c1 [Threohydroxybupropion]
average plasma concentration [12]: ≥ 100 ng/mL
pIC50 [9]: 5.41

COc1ccc(C(CN(C)C)C2(O)CCCCC2)cc1 (centres unmarked) [Venlafaxine]
pIC50 [13]: 4.56

C[C@H]1NC(C)(C)CO[C@]1(O)c1cccc(Cl)c1 [hydroxybupropion]
average plasma concentration [12]: ≥ 200 ng/mL
